According to patent publication US20120255051A1, “HERBICIDE TOLERANT PLANTS” (priority 2009, published 2012):
Several values for one entry are separate records, joined by “and”; a condition that tells them apart may be missing. Equal values may be shown once.

How the values were obtained:
Type in all cases: in vivo, Brassica napus
[1] = system: Brassica plants comprising mutant AHAS alleles; assay: Greenhouse pre-planting application (20 g a.i./ha): vigor scores; conditions: for vigor score Av, pre-planting (2, 3 and 4 weeks after treatment): 20 g a.i./ha
Experimental: (§1) In another experiment, the effect of combining AHAS full knockouts with AHAS missense herbicide tolerant alleles on tolerance to thiencarbazone-methyl pre-planting application and thiencarbazone-methyl post-emergence spraying was tested in the greenhouse. To this end, the Brassica plants identified in Example 1 and 2 were backcrossed two times with an elite parent line, and subsequently selfed twice to obtain homozygous plants (BC2S2). Treatment pre-planting was carried out on the soil just after sowing with a dose of 20 g a.i./ha of thiencarbazone methyl. For assessment of vigor scores, plants were evaluated on a scale of 1 to 9, where 1=dead, 3=poor, 6=some aberrant phenotype and 9=vigorous. The vigor scores are an average of the scores taken at 2, 3 and 4 weeks after treatment. Treatment post-emergence at the first leaf stage was carried out with a dose of 10 g a.i./ha of thiencarbazone-methyl. The vigor scores are an average of the scores taken 1, 2 and 3 weeks after the treatment. The average values (Av) and standard deviations (SD) of the vigor scores are represented in Table 6.

[2] = system: Brassica plants comprising mutant AHAS alleles; assay: Greenhouse post-emergence spraying (10 g a.i./ha): vigor scores; conditions: for vigor score Av, post-emergence (1, 2 and 3 weeks after treatment): 10 g a.i./ha
Experimental: as §1

[3] = system: Brassica plants comprising mutant AHAS alleles; assay: Field trial, post-emergence treatment (0, 10, 20 g a.i./ha), location A: PPTOX and VIG1 scores; conditions: for vigor1 (VIG1) score, Av: 7 days after spray
Experimental: The correlation between the presence of full knockout and missense AHAS genes in Brassica plants on plant growth and herbicide tolerance of the Brassica plants in the field on location A was also tested upon post-emergence herbicide treatment. The field setup was the same as for the pre-planting field trial. Post-emergence treatment was carried out on the 2-4 leaf stage with a rate of 0 (treatment A), 10 (treatment B), 20 (treatment C) g a.i./ha of thiencarbazone methyl. The phytotoxicity (PPTOX) and vigor1 (VIG1; vigor scores 7 days after herbicide spray) were determined as described above. The average values (Av) and standard deviations (SD) of the scores for the different parameters are represented in Table 9.

[4] = AHAS1 +/+, AHAS3 +/+ (HETO108+HETO104 series)
[5] = AHAS1 +/+, AHAS3 +/+ (HETO108+HETO111 series)
[6] = AHAS1 +/+, AHAS3 +/+ (HETO112+HETO111 series)
[7] = AHAS1 +/+, AHAS3 HETO104/HETO104
[8] = AHAS1 +/+, AHAS3 HETO111/HETO111 (HETO108+HETO111 series)
[9] = AHAS1 +/+, AHAS3 HETO111/HETO111 (HETO112+HETO111 series)
[10] = AHAS1 HETO108/HETO108, AHAS3 +/+ (HETO108+HETO104 series)
[11] = AHAS1 HETO108/HETO108, AHAS3 +/+ (HETO108+HETO111 series)
[12] = AHAS1 HETO108/HETO108, AHAS3 HETO104/HETO104
[13] = AHAS1 HETO108/HETO108, AHAS3 HETO111/HETO111
[14] = AHAS1 HETO112/HETO112, AHAS3 +/+
[15] = AHAS1 HETO112/HETO112, AHAS3 HETO111/HETO111
[16] = Elite parent line plants, 10 g a.i./ha (treatment B) post-emergence
[17] = Elite parent line plants, 20 g a.i./ha (treatment C) post-emergence
[18] = plants AHAS1 HETO108 / AHAS3 HETO104, 10 g a.i./ha (treatment B) post-emergence
[19] = plants AHAS1 HETO108 / AHAS3 HETO104, 20 g a.i./ha (treatment C) post-emergence
[20] = plants AHAS1 HETO108 / AHAS3 HETO111, 10 g a.i./ha (treatment B) post-emergence
[21] = plants AHAS1 HETO108 / AHAS3 HETO111, 20 g a.i./ha (treatment C) post-emergence
[22] = plants AHAS1 HETO108 / AHAS3 WT, 10 g a.i./ha (treatment B) post-emergence
[23] = plants AHAS1 HETO108 / AHAS3 WT, 20 g a.i./ha (treatment C) post-emergence
[24] = plants AHAS1 HETO112 / AHAS3 HETO111, 10 g a.i./ha (treatment B) post-emergence
[25] = plants AHAS1 HETO112 / AHAS3 HETO111, 20 g a.i./ha (treatment C) post-emergence
[26] = plants AHAS1 HETO112 / AHAS3 WT, 10 g a.i./ha (treatment B) post-emergence
[27] = plants AHAS1 HETO112 / AHAS3 WT, 20 g a.i./ha (treatment C) post-emergence
[28] = plants AHAS1 WT / AHAS3 HETO104, 10 g a.i./ha (treatment B) post-emergence
[29] = plants AHAS1 WT / AHAS3 HETO104, 20 g a.i./ha (treatment C) post-emergence
[30] = plants AHAS1 WT / AHAS3 HETO111, 10 g a.i./ha (treatment B) post-emergence
[31] = plants AHAS1 WT / AHAS3 HETO111, 20 g a.i./ha (treatment C) post-emergence
[32] = plants AHAS1 WT / AHAS3 WT, 10 g a.i./ha (treatment B) post-emergence
[33] = plants AHAS1 WT / AHAS3 WT, 20 g a.i./ha (treatment C) post-emergence

COC(=O)c1csc(C)c1S(=O)(=O)NC(=O)n1nc(OC)n(C)c1=O [thiencarbazone-methyl, methyl 4-[(4,5-dihydro-3-methoxy-4-methyl-5-oxo-1H-1,2,4-triazol-1-yl)carbonylsulfamoyl]-5-methylthiophene-3-carboxylate]
vigor score Av, pre-planting (2, 3 and 4 weeks after treatment) [1, 4]: 1.3 | vigor score Av, pre-planting (2, 3 and 4 weeks after treatment) [1, 5]: 1.4 | vigor score Av, pre-planting (2, 3 and 4 weeks after treatment) [1, 6]: 1.4 | vigor score Av, pre-planting (2, 3 and 4 weeks after treatment) [1, 7]: 1.3 | vigor score Av, pre-planting (2, 3 and 4 weeks after treatment) [1, 8]: 5.2 | vigor score Av, pre-planting (2, 3 and 4 weeks after treatment) [1, 9]: 4.8 | vigor score Av, pre-planting (2, 3 and 4 weeks after treatment) [1, 10]: 5.3 | vigor score Av, pre-planting (2, 3 and 4 weeks after treatment) [1, 11]: 4.4 | vigor score Av, pre-planting (2, 3 and 4 weeks after treatment) [1, 12]: 6.1 | vigor score Av, pre-planting (2, 3 and 4 weeks after treatment) [1, 13]: 7.6 | vigor score Av, pre-planting (2, 3 and 4 weeks after treatment) [1, 14]: 1.4 | vigor score Av, pre-planting (2, 3 and 4 weeks after treatment) [1, 15]: 5.6 | vigor score Av, pre-planting (2, 3 and 4 weeks after treatment) ([1]; Elite parent line treated): 1.8 | thiencarbazone-methyl tolerance of plants homozygous for a missense allele and a full knock-out allele, versus missense allele with other AHAS gene homozygous wild-type ([1]; pre-planting treatment, greenhouse): higher | vigor score Av, post-emergence (1, 2 and 3 weeks after treatment) [2, 4]: 1.7 | vigor score Av, post-emergence (1, 2 and 3 weeks after treatment) [2, 5]: 1.7 | vigor score Av, post-emergence (1, 2 and 3 weeks after treatment) [2, 6]: 1.7 | vigor score Av, post-emergence (1, 2 and 3 weeks after treatment) [2, 7]: 1.8 | vigor score Av, post-emergence (1, 2 and 3 weeks after treatment) [2, 8]: 3.3 | vigor score Av, post-emergence (1, 2 and 3 weeks after treatment) [2, 9]: 3.1 | vigor score Av, post-emergence (1, 2 and 3 weeks after treatment) [2, 10]: 3.4 | vigor score Av, post-emergence (1, 2 and 3 weeks after treatment) [2, 11]: 3.3 | vigor score Av, post-emergence (1, 2 and 3 weeks after treatment) [2, 12]: 3.8 | vigor score Av, post-emergence (1, 2 and 3 weeks after treatment) [2, 13]: 4.7 | vigor score Av, post-emergence (1, 2 and 3 weeks after treatment) [2, 14]: 1.7 | vigor score Av, post-emergence (1, 2 and 3 weeks after treatment) [2, 15]: 3.6 | vigor score Av, post-emergence (1, 2 and 3 weeks after treatment) ([2]; Elite parent line treated): 1.8 | thiencarbazone-methyl tolerance of plants homozygous for a missense allele and a full knock-out allele, versus missense allele with other AHAS gene homozygous wild-type ([2]; post-emergence spraying, greenhouse): higher | phytotoxicity (PPTOX) score, Av [3, 16]: 1.00 | vigor1 (VIG1) score, Av [3, 16]: 2.33 | phytotoxicity (PPTOX) score, Av [3, 17]: 1.00 | vigor1 (VIG1) score, Av [3, 17]: 2.33 | phytotoxicity (PPTOX) score, Av [3, 18]: 5.00 | vigor1 (VIG1) score, Av [3, 18]: 5.00 | phytotoxicity (PPTOX) score, Av [3, 19]: 4.00 | vigor1 (VIG1) score, Av [3, 19]: 4.00 | phytotoxicity (PPTOX) score, Av [3, 20]: 6.67 | vigor1 (VIG1) score, Av [3, 20]: 6.67 | phytotoxicity (PPTOX) score, Av [3, 21]: 6.00 | vigor1 (VIG1) score, Av [3, 21]: 6.00 | phytotoxicity (PPTOX) score, Av [3, 22]: 6.00 and 5.67 | vigor1 (VIG1) score, Av [3, 22]: 6.00 and 5.67 | phytotoxicity (PPTOX) score, Av [3, 23]: 4.33 | vigor1 (VIG1) score, Av [3, 23]: 4.67 and 4.33 | phytotoxicity (PPTOX) score, Av [3, 24]: 5.00 | vigor1 (VIG1) score, Av [3, 24]: 5.00 | phytotoxicity (PPTOX) score, Av [3, 25]: 4.67 | vigor1 (VIG1) score, Av [3, 25]: 4.67 | phytotoxicity (PPTOX) score, Av [3, 26]: 1.00 | vigor1 (VIG1) score, Av [3, 26]: 2.00 | phytotoxicity (PPTOX) score, Av [3, 27]: 1.00 | vigor1 (VIG1) score, Av [3, 27]: 1.67 | phytotoxicity (PPTOX) score, Av [3, 28]: 1.00 | vigor1 (VIG1) score, Av [3, 28]: 1.67 | phytotoxicity (PPTOX) score, Av [3, 29]: 1.00 | vigor1 (VIG1) score, Av [3, 29]: 1.67 | phytotoxicity (PPTOX) score, Av [3, 30]: 5.33 and 5.67 | vigor1 (VIG1) score, Av [3, 30]: 5.33 | phytotoxicity (PPTOX) score, Av [3, 31]: 4.67 | vigor1 (VIG1) score, Av [3, 31]: 4.67 | phytotoxicity (PPTOX) score, Av [3, 32]: 1.00 | vigor1 (VIG1) score, Av [3, 32]: 1.67 | phytotoxicity (PPTOX) score, Av [3, 33]: 1.00 | vigor1 (VIG1) score, Av [3, 33]: 2.00
